Test results from PMC7154662, “Structural Insight into IAPP‐Derived Amyloid Inhibitors and Their Mechanism of Action” (Angewandte Chemie (International Ed. in English), 2020).
Non-standard residues stand in square brackets, D forms with d. Residues, ends and D or L forms follow the SMILES beside them. NMeI = CC[C@H](C)[C@H](NC)C(=O)O; Sar = CNCC(=O)O

Target: T1, R3-GI (Homo sapiens, UniProt P10997, N54R/S52R/S53R)
T1 construct: linking the two hot segments IAPP(8–18) and IAPP(22–28) in native or N‐methylated form; made in house; host or cells: chemical solid phase peptide synthesis (no expression host)
T1 sequence (P10997 41-61 S52R/S53R/N54R): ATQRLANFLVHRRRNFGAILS
Experiment: Fluorescence titration: self-association of Fluos-R3-GI with R3-GI
Conditions: Fluos-R3-GI 5 nM titrated with R3-GI; 10 mM sodium phosphate buffer, pH 7.4 (1% HFIP); room temperature, 2-5 min after solution preparation; excitation 492 nm; means (±SEM) from three binding curves; read-out: app. Kd for R3-GI self-association
Description: Figure 1 R3‐GI self‐assembly. […] On the right, the binding curve is shown. The estimated app. […] Data are means (±SEM) from three binding curves. […] Scale bar: 10 μm.
The sampling of the 12 replicas was combined resulting in the ensemble of conformations were the statistical weight of each conformation is obtained by a simple reweighting scheme based on the final metadynamics bias B. The weight of a conformation X is given by w=exp(+B(X)/kBT), consistently with the quasi static behavior at convergence of well- […]
Coarse-grained modelling of R3-GI oligomers
To investigate the interaction of the peptides with each other, over 100 μs of coarse grain simulations were performed using GROMACS. An initial peptide model was created based on a representative structure from the atomistic ensemble. The Martini 2.2 force field was used to describe the peptide interaction together with the standard Martini water model.
Additionally, an elastic network was applied to conserve structural information. […]
Fluorescence spectroscopic titrations
A JASCO FP-6500 fluorescence spectrophotometer was used and titrations were performed as previously described. Briefly, excitation was at 492 nm and fluorescence emission spectra were recorded between 500 and 600 nm. […]
temperature within 2-5 min following solution preparation. The determined app. […]

Kd: 77.1 nM
Compound: CC[C@H](C)[C@@H](C(=O)N[C@@H](CC(C)C)C(=O)N[C@@H](CO)C(N)=O)N(C)C(=O)[C@H](C)NC(=O)CN(C)C(=O)[C@H](Cc1ccccc1)NC(=O)[C@H](CC(N)=O)NC(=O)[C@H](CCCNC(=N)N)NC(=O)[C@H](CCCNC(=N)N)NC(=O)[C@H](CCCNC(=N)N)NC(=O)[C@H](Cc1c[nH]cn1)NC(=O)[C@@H](NC(=O)[C@H](CC(C)C)NC(=O)[C@H](Cc1ccccc1)NC(=O)[C@H](CC(N)=O)NC(=O)[C@H](C)NC(=O)[C@H](CC(C)C)NC(=O)[C@H](CCCNC(=N)N)NC(=O)[C@H](CCC(N)=O)NC(=O)[C@@H](NC(=O)[C@H](C)N)[C@@H](C)O)C(C)C [R3-GI] (H-ATQRLANFLVHRRRNF[Sar]A[NMeI]LS-NH2)
